Results as given in patent US10905660B2, “Microparticles” (NovaBiotics Limited, priority 2016, dated 2021).

How the values were obtained:
Format in all cases: in vivo
[1] = test system: Pseudomonas aeruginosa ATCC 27853; experiment: Mouse IN neutropenic lung burden model, Lynovex/lactose study; conditions: 24 h post-infection
Experimental: (§1) Assessment of Efficacy of Lynovex (Cysteamine) Prep in a Mouse IN Neutropenic model of Pseudomonas aeruginosa ATCC 27853 (Lung Burden Model)
(§2) Animals were immunosuppressed/pre-conditioned with either 200 mg/kg or 150 mg/kg cyclophosphamide. Lynovex, chemical name cysteamine, and vehicle were either prepared either as Lynovex and lactose vehicle, or Lynovex and mannitol-based vehicle (both provided by Upperton (Upperton product)). These were prepared for treatment and vehicle-control alone respectively, and in combination. Tobramycin was prepared as an inhalation formulation in lactose. All treatments were administered using a Penn Century device. Phosphate buffered saline (PBS) and Pseudomonas selective agar were required for bacterial tissue burden.
(§3) Male CD1 mice (n=6 for treatment groups, plus five in pre-treatment group, totalling 35 mice) were used in this study. On day −4, the mice were immunosuppressed/pre-conditioned with 200 mg/kg cyclophosphamide intraperitoneally; and with 150 mg/kg cyclophosphamide intraperitoneally on day −1. An infection was established with P. aeruginosa ATCC27853, with an inoculum of 5×10^6 cfu/ml, administered intranasally in a volume of 40 μl following anaesthetisation with a ketamine/xylazine anaesthetic cocktail for 15 minutes, for the Lynovex prepared in lactose study, and an inoculum of 4×10^6 for the Upperton Lynovex product.
All treatments were administered intratracheally using a Penn Century device.
Lynovex (cysteamine) was administered at 1.5 mg alone, and in combination with lactose at the following concentrations: Lynovex 0.75 mg+2.25 mg lactose powder, Lynovex 1.5 mg+1.5 mg lactose powder, Lynovex 2.25 mg+0.75 mg, along with a vehicle only control of 3 mg lactose. In addition, Tobramycin at 188 μg/dose was administered, as an inhaled formulation which was mixed with lactose to aid measurement. The treatments were administered approximately 5 minutes after infection.
(§4) The lung tissue burden of each animal, at the clinical end point of 24 h post-infection, was determined. The lungs were homogenised in 2 ml PBS, serially diluted in PBS and plated onto Pseudomonas selective agar before quantification after 24-48 h at 37° C.

[2] = test system: Pseudomonas aeruginosa ATCC 27853; experiment: Mouse IN neutropenic lung burden model, Lynovex Upperton product (mannitol-based) study; conditions: 0.188 mg inhalation formulation, intratracheal, 24 h post-infection; highly variable burdens
Experimental: as §1, §2
Male CD1 mice (n=6 for treatment groups, plus five in pre-treatment group, totalling 35 mice) were used in this study. On day −4, the mice were immunosuppressed/pre-conditioned with 200 mg/kg cyclophosphamide intraperitoneally; and with 150 mg/kg cyclophosphamide intraperitoneally on day −1. […]
as §4

[3] = Mouse weights before and after infection; conditions: P. aeruginosa infected neutropenic CD1 mice, Upperton product study (FIG. 6)
Experimental: as §3
In a different study, Lynovex was administered at the following doses: 3 mg 5% Lynovex and 3 mg 10% Lynovex. Lynovex in combination with Tobramycin as follows: 3 mg 5% Lynovex+Tobramycin 0.188 mg in 1.5 mg vehicle, 3 mg 10% Lynovex+Tobramycin 0.188 mg in 1.5 mg Vehicle (mannitol-based, provided by Upperton) and a Tobramycin only control (0.188 mg/dose in lactose vehicle). The treatments were administered once approximately 10 minutes after infection.
Additionally, mouse weights were recorded before and after infection. Mice treated with vehicle, Lynovex monotherapy or Tobramycin monotherapy lost weight following infection. […]

Row | SMILES | mice clearing the infection to below the detection limit ([1]; 1.5 mg intratracheal) | lung burden compared to vehicle ([1]; 1.5 mg intratracheal, P=0.0072) | mice clearing the infection to below the detection limit ([1]; 2.25 mg intratracheal) | lung burden compared to vehicle ([1]; 2.25 mg intratracheal, P=0.0349) | average reduction in lung burden compared with vehicle-treated mice [2] | animals that cleared the infection to below the limit of detection ([1]; 0.188 mg inhalation formulation, intratracheal) | lung burden compared with vehicle-treated mice ([1]; 0.188 mg inhalation formulation, intratracheal, CD1 mice, P=0.0097 Kruskal Wallis test) | mouse weight following infection [3]
1 | NCCS [Lynovex, cysteamine] | 5/6 | reduced the lung burden | 4/6 | reduced the lung burden |  |  |  | 
2 | NC[C@H]1O[C@H](O[C@H]2[C@H](O)[C@@H](O[C@H]3O[C@H](CO)[C@@H](O)[C@H](N)[C@H]3O)[C@H](N)C[C@@H]2N)[C@H](N)C[C@@H]1O [Tobramycin] |  |  |  |  | 1.61 log10 cfu/g | 5/6 | statistically significant reduction in lung burden | lost weight
